What all share (type): cell-based
Series [1] in a line: Nephrotoxicity assay: in vitro cytotoxicity of HK-2 cells by CCK-8 assay. The conditions noted are these: human, HK-2 cells (human renal), 72 h incubation with drug-containing medium. As for the experimental part:
In vitro cytotoxicity detection of HK-2 cells was performed by the CCK-8 assay.
The culture medium for human renal HK-2 cells was a complete RPMI-1640 medium (Invitrogen) supplemented with 10% fetal bovine serum (FBS, Gibco). The cryopreservation solution was composed of 90% FBS and 10% dimethyl sulfoxide (DMSO), and the cells were preserved long-term in liquid nitrogen. Cells were cultured in a sterile incubator with a humidified atmosphere containing 5% CO2 at 37°C. When the cell density reached 70%-80%, cell digestion and subculture were conducted. The cyclic lipopeptide compounds prepared in Examples 1-120 were weighed and dissolved in sterile water to prepare a mother solution with a concentration of 1 mg/mL. Drug-containing culture media were then formulated, with the final concentrations set as 500, 250, 200, 100, 50, 25, and 12.5 µg/mL, respectively. Cells were adjusted to a density of 5 × 10^4 cells/mL and seeded into 96-well plates, with 100 µL of cell suspension added to each well. After stable incubation for 24 h, the original medium was replaced with the prepared drug-containing medium, and the plates were incubated in the incubator for an additional 72 h. The medium was gently aspirated, and 100 µL of blank medium containing 10% CCK-8 was added to each well. After incubation in the incubator for 3 h, the optical density (OD) values at 450 nm were measured using a BIOTEK microplate reader. The experiment was repeated three times. For each replicate, polymyxin B was set as the positive drug, and a drug-free blank group was established as the control. The cell viability (%) was calculated by the formula: Cell viability (%) = [(OD of drug-treated group - OD of zero-setting) / (OD of drug-free group - OD of zero-setting)] × 100%. The half-maximal inhibitory concentration (IC50) values were calculated through logarithmic regression analysis.
The cells used for the nephrotoxicity assay were obtained from the ATCC ( American Type Culture Collection). The Cell Counting Kit-8 (CCK-8) used in the assay was supplied by Beyotime Biotechnology Co., Ltd.

The test system of series [2] is Klebsiella pneumoniae KPN+19-15. The conditions noted are these: KPN+19-15. As for the experimental part: (§1) The minimal inhibitory concentration (MIC) was determined by the broth microdilution method according to the recommended procedures of the Clinical and Laboratory Standards Institute (CLSI).
(§2) An appropriate amount of the cyclic lipopeptide compounds prepared in Examples 1-120 and the reference standards were weighed and dissolved in sterile pure water. An appropriate volume of the mother solution was subjected to ten-fold dilution with sterile Mueller-Hinton (MH) broth to a concentration of 0.256 mg/mL. Half of the drug solution was aliquoted into 96-well reagent reservoirs, while the other half was subjected to two-fold serial dilution with sterile MH broth before being transferred into deep-well reagent reservoirs. The above steps were repeated, so that the drug concentrations in the reagent reservoirs were adjusted to 128, 64, 32, 16, 8, 4, 2, 1, 0.5, 0.25, 0.125 and 0.06 mg/L in sequence, and all solutions were prepared and used immediately. Several colonies were picked from agar plates cultured for 18-24 h and directly suspended in sterile normal saline, and the concentration of the bacterial suspension was adjusted to 0.5 McFarland units. The calibrated bacterial suspension was diluted with MH broth to a concentration of (4-8) × 10^5 colony-forming units per milliliter (CFU/mL) and prepared and used immediately. A volume of 100 µL of the aforementioned compounds of the present disclosure (e.g., the compounds prepared in the examples) and reference solutions at different concentrations was separately pipetted into wells 1 to 12 of sterile 96-well polystyrene plates, and an additional 100 µL of the aforementioned inoculum was added to each well. The final concentrations of the samples in the wells were adjusted to 64, 32, 16, 8, 4, 2, 1, 0.5, 0.25, 0.125, 0.06 and 0.03 mg/L, respectively, and the final concentration of the inoculum in each well was (2-4) × 10^5 CFU/mL. Additional growth control wells were set up, each containing 100 µL of the inoculum and 100 µL of sterile MH broth. The test substances and inocula in all wells were mixed thoroughly and then sealed. The inoculated 96-well plates were incubated in an incubator at 35-37°C for 16-20 h.
(§3) The strains used for the antibacterial activity assay were obtained from the American Type Culture Collection (ATCC) and clinical isolates.
(§4) The strains employed for the antibacterial activity assay included Escherichia coli ATCC BAA-2523, ATCC BAA-2340 (KPC), Klebsiella pneumoniae KPN+19-15, ATCC BAA-1705 (KPC), Pseudomonas aeruginosa PAE19-3, ATCC 27853, Acinetobacter baumannii ABA19-1, and NCTC 13304 (OXA-27).

The subject of series [3] is Acinetobacter baumannii NCTC 13304 (OXA-27). Conditions: NCTC 13304. As for the experimental part: as §1, §2, §3, §4
For series [4], the system named is Escherichia coli ATCC BAA-2523. The conditions noted are these: ATCC BAA-2523. As for the experimental part: as §1, §2, §3, §4
Series [5] deals with Acinetobacter baumannii ABA19-1. Conditions: ABA19-1. As for the experimental part:
as §1, §2, §3, §4

In series [6] the test system is Pseudomonas aeruginosa PAE19-3. Conditions: PAE19-3. As for the experimental part:
as §1, §2, §3, §4

In series [7] the test system is Pseudomonas aeruginosa ATCC 27853. Conditions: ATCC 27853. As for the experimental part: as §1, §2, §3, §4
The test system of series [8] is Klebsiella pneumoniae ATCC BAA-1705 (KPC). The conditions noted are these: ATCC BAA-1705. The protocol: as §1, §2, §3, §4
The subject of series [9] is Escherichia coli ATCC BAA-2340 (KPC). The conditions noted are these: ATCC BAA-2340. The protocol: as §1, §2, §3, §4

Each structure is given as a SMILES string. In brackets after ≈: the same amount, converted by molar mass. Bridge positions count the residues as written; N and C are the ends. Square brackets hold non-standard residues; d marks the D form. Peptide text beside a SMILES is read from it. * marks the point of attachment. Dab(CH2SO3H) = N[C@@H](CCNCS(=O)(=O)O)C(=O)O; Heptanoyl(6-Me) = CC(C)CCCCC(=O)*; dOrn = NCCC[C@@H](N)C(=O)O; X1 = CC[C@H](C)CCCCC(=O)*; dDab = NCC[C@@H](N)C(=O)O; Heptanoyl = CCCCCCC(=O)*; Orn = NCCC[C@H](N)C(=O)O; Dab = NCC[C@H](N)C(=O)O; Dap = NC[C@H](N)C(=O)O

In general, IC50 refers to the concentration that inhibits the measured activity by half. Broadly, the MIC is the lowest concentration that inhibits growth of the organism. The low end stands for greater potency, the high end for weaker potency. For `CCCCCCC(=O)N[C@@H](CCN)C(=O)N[C@H](C(=O)N[C@H](CO)C(=O)N[C@H]1CCNC(=O)[C@H]([C@@H](C)O)NC(=O)[C@H](CCN)NC(=O)[C@H](CCN)NC(=O)[C@H]([C@@H](C)O)NC(=O)[C@@H](Cc2ccccc2)NC(=O)[C@H](CCCN)NC1=O)[C@@H](C)O` [Compound 69, Heptanoyl-Dab-Thr-D-Ser-ring(4-10)[Dab-Orn-D-Phe-Thr-Dab-Dab-Thr]] (Heptanoyl-[Dab]T[dS][Dab][Orn][dF]T[Dab][Dab]T; lactam 4-C), the IC50 at 72 h in series [1] was > 500 µg/mL. Besides, the MIC was determined as 0.5 µg/mL (≈ 0.429 µM) in series [2]; 0.25 µg/mL (≈ 0.215 µM) in series [3]; 0.5 µg/mL (≈ 0.429 µM) in [4]; 0.25 µg/mL (≈ 0.215 µM) in series [5]; 8 µg/mL (≈ 6.87 µM) in [6]; 64 µg/mL (≈ 55 µM) in series [7]. In addition, the figures for the minimal inhibitory concentration (MIC) in series [8] and in series [9] were 0.25 µg/mL (≈ 0.215 µM) and 0.5 µg/mL (≈ 0.429 µM), respectively.

With `CC(C)CCCCC(=O)N[C@@H](CCN)C(=O)N[C@H](C(=O)N[C@H](CO)C(=O)N[C@H]1CCNC(=O)[C@H]([C@@H](C)O)NC(=O)[C@H](CCN)NC(=O)[C@H](CCN)NC(=O)[C@H]([C@@H](C)O)NC(=O)[C@@H](Cc2ccccc2)NC(=O)[C@H](CCNCS(=O)(=O)O)NC1=O)[C@@H](C)O` [Compound 109, 6-methylheptanoyl-Dab-Thr-D-Ser-ring(4-10)[Dab-Dab(CH2SO3H)-D-Phe-Thr-Dab-Dab-Thr]] ({Heptanoyl(6-Me)}-[Dab]T[dS][Dab][Dab(CH2SO3H)][dF]T[Dab][Dab]T; lactam 4-C), in series [1], the IC50 at 72 h was > 500 µg/mL. The MIC in series [2] is given as 0.125 µg/mL (≈ 0.0993 µM); in series [3], 0.06 µg/mL (≈ 0.0477 µM); in series [4] it was 0.06 µg/mL (≈ 0.0477 µM); in series [5], 0.25 µg/mL (≈ 0.199 µM); in series [6] it was 0.5 µg/mL (≈ 0.397 µM); in [7], 0.25 µg/mL (≈ 0.199 µM). Moreover, the figures for the MIC in [8] and in series [9] were 0.125 µg/mL (≈ 0.0993 µM) and 0.06 µg/mL (≈ 0.0477 µM), respectively.

Consider `CC(C)CCCCC(=O)N[C@@H](CCN)C(=O)N[C@H](C(=O)N[C@H](CO)C(=O)N[C@H]1CCNC(=O)[C@H]([C@@H](C)O)NC(=O)[C@H](CCN)NC(=O)[C@H](CCN)NC(=O)[C@H]([C@@H](C)O)NC(=O)[C@@H](Cc2ccccc2)NC(=O)[C@H](CN)NC1=O)[C@@H](C)O` [Compound 62, 6-methylheptanoyl-Dab-Thr-D-Ser-ring(4-10)[Dab-Dap-D-Phe-Thr-Dab-Dab-Thr]] ({Heptanoyl(6-Me)}-[Dab]T[dS][Dab][Dap][dF]T[Dab][Dab]T; lactam 4-C), for which the IC50 at 72 h in series [1] was > 500 µg/mL. Further, the MIC was 0.5 µg/mL (≈ 0.435 µM) in series [2]; 0.25 µg/mL (≈ 0.217 µM) in [3]; 0.06 µg/mL (≈ 0.0522 µM) in series [4]; 0.25 µg/mL (≈ 0.217 µM) in series [5]; 4 µg/mL (≈ 3.48 µM) in series [6]; 64 µg/mL (≈ 55.6 µM) in series [7]. Further, the MIC in series [8] stood at 0.25 µg/mL (≈ 0.217 µM); in series [9], 0.06 µg/mL (≈ 0.0522 µM).

On to `CC(C)CCCCC(=O)N[C@@H](CCNCS(=O)(=O)O)C(=O)N[C@H](C(=O)N[C@H](CO)C(=O)N[C@H]1CCNC(=O)[C@H]([C@@H](C)O)NC(=O)[C@H](CCN)NC(=O)[C@H](CCN)NC(=O)[C@H]([C@@H](C)O)NC(=O)[C@@H](Cc2ccccc2)NC(=O)[C@H](CCN)NC1=O)[C@@H](C)O` [Compound 108, 6-methylheptanoyl-Dab(CH2SO3H)-Thr-D-Ser-ring(4-10)[Dab-Dab-D-Phe-Thr-Dab-Dab-Thr]] ({Heptanoyl(6-Me)}-[Dab(CH2SO3H)]T[dS][Dab][Dab][dF]T[Dab][Dab]T; lactam 4-C), for which, in series [1], the IC50 at 72 h is > 500 µg/mL. In addition, the MIC in [2] amounted to 0.125 µg/mL (≈ 0.0993 µM); in series [3], 0.06 µg/mL (≈ 0.0477 µM); in series [4] it was 0.06 µg/mL (≈ 0.0477 µM); in series [5] it was 0.25 µg/mL (≈ 0.199 µM); in [6] it was 0.5 µg/mL (≈ 0.397 µM); in series [7] it was 0.25 µg/mL (≈ 0.199 µM). The values for the MIC in series [8] and in series [9] were 0.125 µg/mL (≈ 0.0993 µM) and 0.06 µg/mL (≈ 0.0477 µM), respectively.

Take `CC[C@H](C)CCCCC(=O)N[C@@H](CCN)C(=O)N[C@H](C(=O)N[C@H](CCCN)C(=O)N[C@H]1CCNC(=O)[C@H]([C@@H](C)O)NC(=O)[C@H](CCN)NC(=O)[C@H](CCN)NC(=O)[C@H]([C@@H](C)O)NC(=O)[C@@H](Cc2ccccc2)NC(=O)[C@H](CCN)NC1=O)[C@@H](C)O` [Compound 21, (S)-6-methyloctanoyl-Dab-Thr-D-Orn-ring(4-10)[Dab-Dab-D-Phe-Thr-Dab-Dab-Thr]] (X1-[Dab]T[dOrn][Dab][Dab][dF]T[Dab][Dab]T; lactam 4-C): the IC50 at 72 h in series [1] is > 500 µg/mL. Besides, the minimal inhibitory concentration (MIC) was 0.125 µg/mL (≈ 0.104 µM) in series [2]; 0.06 µg/mL (≈ 0.0498 µM) in series [3]; ≤0.03 µg/mL in series [4]; 0.125 µg/mL (≈ 0.104 µM) in series [5]; 1 µg/mL (≈ 0.83 µM) in [6]; 0.25 µg/mL (≈ 0.207 µM) in series [7]. For the same compound, the MIC in series [8] was 0.06 µg/mL (≈ 0.0498 µM); in series [9], ≤0.03 µg/mL.

For the compound `CC[C@H](C)CCCCC(=O)N[C@@H](CN)C(=O)N[C@H](C(=O)N[C@H](CCN)C(=O)N[C@H]1CCNC(=O)[C@H]([C@@H](C)O)NC(=O)[C@H](CCN)NC(=O)[C@H](CCN)NC(=O)[C@H](CC(C)C)NC(=O)[C@@H](CC(C)C)NC(=O)[C@H](CCN)NC1=O)[C@@H](C)O` [Compound 96, (S)-6-methyloctanoyl-Dap-Thr-D-Dab-ring(4-10)[Dab-Dab-D-Leu-Leu-Dab-Dab-Thr]] (X1-[Dap]T[dDab][Dab][Dab][dL]L[Dab][Dab]T; lactam 4-C), the IC50 at 72 h in [1] turned out to be 207 ± 13.2 µg/mL (≈ 179 µM). Moreover, the MIC in series [2] came out at 0.03 µg/mL (≈ 0.026 µM); in [3], 0.03 µg/mL (≈ 0.026 µM); in series [4], 0.03 µg/mL (≈ 0.026 µM); in series [5], 0.03 µg/mL (≈ 0.026 µM); in series [6], 0.5 µg/mL (≈ 0.433 µM); in series [7], 0.5 µg/mL (≈ 0.433 µM). The MIC in series [8] and in series [9] was 0.03 µg/mL (≈ 0.026 µM) each time.
